Tests used:
LoxR [1] = biological target: T1, LoxR (Kosakonia pseudosacchari, UniProt A0ABX4IX59); test: co-purification of complex (Ni-NTA, gel filtration), LC-MS/MS detection of coeluting AHL; ligand-dependent solubility; format: binding; settings: expressed with 10 uM AHL, 16°C; pH 8.5
T1 construct: gene BK796_01250; full-length, His6-tagged (pET22b NdeI/XhoI, tag at C-terminus by vector), E. coli BL21(DE3) pLysS; forward primer encodes N-terminus MQDTEFFT

LoxR [2] = biological target: T1, LoxR; test: ligand-dependent solubility on expression in E. coli (total extract vs soluble fraction); format: cell-based; settings: expressed in E. coli in presence of AHL, 0.2 mM IPTG, 37°C overnight

T1 sequence (A0ABX4IX59 entry or part of it): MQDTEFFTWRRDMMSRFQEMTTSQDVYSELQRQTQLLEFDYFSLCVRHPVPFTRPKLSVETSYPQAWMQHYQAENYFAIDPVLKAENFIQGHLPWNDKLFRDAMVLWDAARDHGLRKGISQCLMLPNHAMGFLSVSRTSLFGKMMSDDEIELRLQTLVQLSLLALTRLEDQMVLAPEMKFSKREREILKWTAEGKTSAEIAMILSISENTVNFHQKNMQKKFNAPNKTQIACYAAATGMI

## CCCCCC(=O)N[C@H]1CCOC1=O [C6-HSL]
LoxR [1]
  co-purification of complex (Ni-NTA, gel filtration), LC-MS/MS detection of coelu: It was therefore concluded that AHLs solubilize and bind to LoxR.

## CCCCCCCCCC(=O)N[C@H]1CCOC1=O [C10-HSL]
LoxR [2]
  ligand-dependent solubility on expression in E. coli (total extract vs soluble f): LoxR was soluble when bound and insoluble when unbound to AHLs

## CCCC(=O)CC(=O)N[C@H]1CCOC1=O [OC6-HSL]
LoxR [2]
  ligand-dependent solubility on expression in E. coli (total extract vs soluble f): LoxR was soluble when bound and insoluble when unbound to AHLs

## CCCCCC(=O)CC(=O)N[C@H]1CCOC1=O [OC8-HSL]
LoxR [2]
  ligand-dependent solubility on expression in E. coli (total extract vs soluble f): LoxR was soluble when bound and insoluble when unbound to AHLs

## CCCCCCCCCC(=O)CC(=O)N[C@H]1CCOC1=O [OC12-HSL]
LoxR [1]
  co-purification of complex (Ni-NTA, gel filtration), LC-MS/MS detection of coelu: OC12-HSL was also able to solubilize LoxR (data not shown)

## CCCC(O)CC(=O)N[C@H]1CCOC1=O (stereo partly drawn) [OHC6-HSL]
LoxR [2]
  ligand-dependent solubility on expression in E. coli (total extract vs soluble f): LoxR was soluble when bound and insoluble when unbound to AHLs

Source: PMC7301841, “LuxR Solos in the Plant Endophyte Kosakonia sp. Strain KO348” (Applied and Environmental Microbiology, 2020)
